Assay results from patent US7872128B2, “Benzisoxazole and isoxazolo-pyridine compounds and method of use” (Amgen Inc., priority 2006, dated 2011).

Experiments:
[1] = tested on: SCF or GM-CSF-stimulated UT-7 cells; assay: SCF and GM-CSF stimulated UT7 proliferation/survival assay; assay type: cell-based; conditions: Homo sapiens, UT7, 72 h, 3 days, ATP readout
Text: SCF and GM-CSF Stimulated UT7 Proliferation/Survival Assay:
The purpose of this assay is to test the general anti-proliferative/cytotoxic effect of small molecule compounds on SCF or GM-CSF-stimulated UT-7 cells. Preventing SCF stimulated proliferation/survival is consistent with an on-mechanism effect whereas inhibition of GM-CSF driven proliferation/survival is indicative of off-target effects. UT-7 is a factor dependent human megakaryoblastic leukemia cell line that can be grown in either IL-3, GM-CSF, EPO or SCF (these cells have been confirmed to carry wild type c-kit receptor). Cells are maintained in growth media (IMDM, 10% HI-FBS, 1×PGS, 1 ng/mL GM-CSF). To measure SCF or GM-CSF-induced proliferation, cells are washed and re-suspended to 5e4c/mL in assay media (RPMI 1640/4% HI-FBS, 1×PGS) and plated at 50 uL/well for 2500c/well. Small molecule compounds are first diluted in 100% DMSO, then diluted 1:4 in RT assay media. 5 Microliters of 11×SCF (55 ng/mL) or 11×GM-CSF (11 ng/mL) in assay media plus 1 μL of diluted drug are added to the cell plates. The treated cells are incubated in a 37° C. humidified incubator with 5% CO2 for 3 days. The amount of ATP is then measured as a surrogate marker for cell viability. This is accomplished by adding 50 μL of Perkin Elmer ATP 1 step reagent (as per instructed in the reagent manual, Cat. No. 6016739), incubating at RT for 15 min and reading the luminescence with a Perkin Elmer Topcount NXT™HTS (model c384) plate reader. The amount of SCF or GM-CSF stimulated viable cells in the presence of compound compared with in the presence of vehicle alone (HI control) is calculated using the formula: % control (POC)=(cpd−average LO)/(average HI−average LO)*100. Data (consisting of POC and inhibitor concentration in μM) is fitted to a 4-parameter equation (y=A+((B−A)/(1+((x/C)^D))), where A is the minimum y (POC) value, B is the maximum y (POC), C is the x (cpd concentration) at the point of inflection and D is the slope factor) using a Levenburg-Marquardt non-linear regression algorithm.

c-kit kinase enzyme = target: T1, c-kit kinase enzyme (Homo sapiens, UniProt P10721); assay: C-kit Homogeneous Time Resolved Fluorescent (HTRF) kinase assay; assay type: biochemical; conditions: read-out: average IC50 value, inhibition of the c-kit kinase enzyme
T1 construct: c-kit (6.25 μM) (catalytic domain, N-terminal GST tagged, unphosphorylated); GST (N)
T1 sequence (P10721 589-937 limits assumed): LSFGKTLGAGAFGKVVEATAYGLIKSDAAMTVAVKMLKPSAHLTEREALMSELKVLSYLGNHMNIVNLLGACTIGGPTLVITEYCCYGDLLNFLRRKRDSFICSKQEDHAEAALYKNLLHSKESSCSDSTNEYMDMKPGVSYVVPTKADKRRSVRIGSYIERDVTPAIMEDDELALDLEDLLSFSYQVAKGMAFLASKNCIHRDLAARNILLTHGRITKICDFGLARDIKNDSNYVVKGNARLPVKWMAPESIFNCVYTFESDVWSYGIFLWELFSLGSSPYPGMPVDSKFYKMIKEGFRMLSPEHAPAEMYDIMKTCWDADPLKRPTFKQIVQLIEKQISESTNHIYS
Experimental: C-kit-Homogeneous Time Resolved Fluorescent (HTRF) Kinase Assay:
The purpose of this assay is to measure the inhibition of c-kit enzyme activity (autophosphorylation and phosphorylation of substrate) by small molecule test compounds. The c-kit HTRF assay begins with c-kit-catalyzed phosphorylation of biotinylated peptide Her-2 (N-GGMEDIYFEFMGGKKK-C) in the presence of ATP. The c-kit enzyme reaction is comprised of 1 μL of compound in 100% DMSO, 15 μL of 2× substrate mix (50 μM ATP and 2 μM biotinylated Her-2) and 15 μL of 2× c-kit (6.25 μM) (catalytic domain, N-terminal GST tagged, unphosphorylated) in 4 mM DTT all diluted in enzyme buffer (25 mM HEPES pH 7.5, 12.5 mM NaCl, 50 mM MgCl, 0.05% BSA). The reaction incubates for 90 min at RT. 160 Microliters of detection mixture containing 0.47 μg/mL steptavidin allophycocyanin and 29.7 pM europylated anti-phosphotyrosine Ab (PT66, Perkin Elmer) in HTRF buffer (100 mM Hepes pH 7.5, 100 mM NaCl, 0.1% BSA, 0.05% Tween 20) is then added to stop the reaction, by diluting out the enzyme as well as to enable quantitation of phosphorylated Her-2. After 3 h at RT, the detection reaction is read in a Packard Discovery™ (model BD1000) plate reader. The wells are excited with coherent […] light and the ratio of delayed ([…] post excitation) emissions at […] (native europium fluorescence) and 665 nm (europium fluorescence transferred to allophycocyanin—an index of substrate phosphorylation) is determined. The proportion of substrate phosphorylated in the kinase reaction in the presence of compound compared with that phosphorylated in the presence of DMSO vehicle alone (HI control) is calculated using the formula: % control (POC)=(cpd−average LO)/(average HI—average LO)*100. Data (consisting of POC and inhibitor concentration in μM) is fitted to a 4-parameter equation (y=A+((B−A)/(1+((x/C)^D))), where A is the minimum y (POC) value, B is the maximum y (POC), C is the x (compound concentration) at the point of inflection and D is the slope factor) using a Levenburg-Marquardt non-linear regression algorithm.

SMILES: O=C(Nc1cncnc1)c1c(Cl)ccc2c(Nc3ccc(C(F)(F)F)cc3)noc12 [Example 5, 6-chloro-N-(pyrimidin-5-yl)-3-(4-(trifluoromethyl)phenylamino)benzo[d]isoxazole-7-carboxamide]
- IC50 [1]: ≤ 20 nM

SMILES: O=C(Nc1cncnc1)c1c(Cl)ccc2c(Nc3ccc(F)c(C(F)(F)F)c3)noc12 [Example 10, 6-chloro-3-(4-fluoro-3-(trifluoromethyl)phenylamino)-N-(pyrimidin-5-yl)benzo[d]isoxazole-7-carboxamide]
- IC50 (c-kit kinase enzyme): ≤ 20 nM

SMILES: O=C(Nc1cncnc1)c1c(Cl)ccc2c(Nc3cc(F)cc(C(F)(F)F)c3)noc12 [Example 12, 6-chloro-3-(3-fluoro-5-(trifluoromethyl)phenylamino)-N-(pyrimidin-5-yl)benzo[d]isoxazole-7-carboxamide]
- IC50 (c-kit kinase enzyme): ≤ 20 nM

SMILES: O=C(Nc1cncnc1)c1c(Cl)ccc2c(Nc3ccc(OC(F)(F)F)cc3)noc12 [Example 15, 6-chloro-N-(pyrimidin-5-yl)-3-(4-(trifluoromethoxy)phenylamino)benzo[d]isoxazole-7-carboxamide]
- IC50 (c-kit kinase enzyme): ≤ 20 nM

SMILES: CCCc1ccc(Nc2noc3c(C(=O)Nc4cncnc4)c(Cl)ccc23)cc1 [Example 17, 6-chloro-3-(4-propylphenylamino)-N-(pyrimidin-5-yl)benzo[d]isoxazole-7-carboxamide]
- IC50 (c-kit kinase enzyme): ≤ 20 nM
- IC50 [1]: ≤ 20 nM

SMILES: CCCCc1ccc(Nc2noc3c(C(=O)Nc4cncnc4)c(Cl)ccc23)cc1 [Example 18, 3-(4-butylphenylamino)-6-chloro-N-(pyrimidin-5-yl)benzo[d]isoxazole-7-carboxamide]
- IC50 [1]: ≤ 20 nM
